Test results as given in PMC5635026, “Homo-PROTACs: bivalent small-molecule dimerizers of the VHL E3 ubiquitin ligase to induce self-degradation” (Nature Communications, 2017).

Experiments:
HeLa cells = test: Isobaric tagging (TMT) MS proteomics in HeLa cells, proteome-wide degradation; assay type: cell-based, Human; conditions: 1 µM for 10 h, compared to DMSO or VHL inhibitor treatment
Description: (§1) MS proteomics. Sample preparation. HeLa cells were seeded at 5 × 10^6 on a 10 cm plate 16 h before treatment. […] Cells were incubated at 37 °C and 5% CO2 for 10 h before harvesting. Cells were placed on ice and medium was removed and cells were washed twice with cold PBS. Cells were lysed in 0.5 ml of 100 mM Tris pH 8.0, 4% (w/v) SDS supplemented with protease inhibitor cocktail (Roche). The lysate was pulse sonicated briefly and then centrifuged at 17,000 × g for 15 min at 4 °C. The supernatant fraction of cell extract was snap-frozen in liquid nitrogen and stored in −80 °C freezer. Further sample processing, digestion, desalting, labeling and fractionation were performed as previously described.
(§2) nLC-MS/MS analysis. The TMT 10plex fractions were first analyzed as previously described. Briefly, the TMT 10plex fractions were analyzed sequentially on a Q Exactive HF Hybrid Quadrupole-Orbitrap Mass Spectrometer (Thermo Scientific) coupled to an UltiMate 3000 RSLCnano UHPLC system (Thermo Scientific) and EasySpray column (75 μm × 50 cm, PepMap RSLC C18 column, 2 μm, 100 Å, Thermo Scientific). The MS2 isolation window was set to 0.4 Da and the resolution set at 120,000. MS2 resolution was set at 60,000. The AGC targets for MS1 and MS2 were set at 3e^6 ions and 1e5 ions, respectively. The normalized collision energy was set at 32%. […] After the first analysis, the TMT labeled fractions were re-analyzed on the Q-Exactive HF using the same instrument settings and a target list generated from a theoretical trypsin digest of VHL. […] After the second analysis, two fractions were further analyzed using a targeted SIM/ddMS2 method on the Q-Exactive HF. […]
(§3) Peptide and protein identification. All the raw MS data files from the three analyses were merged and searched against the Uniprot-sprot-Trembl-Human-Canonical database by Maxquant software 1.5.3.30 for protein identification and TMT reporter ion quantitation. […] Quantified proteins were filtered if the absolute fold-change difference between the two DMSO replicates was ≥ 1.5.

[1] = tested on: Leucine-rich repeat-containing protein 42 (LRRC42); test: TMT MS proteomics in HeLa cells, LRRC42 abundance; assay type: cell-based, Homo sapiens; conditions: 1 µM, 10 h, two replicates
Description: as §1, §2, §3

[2] = tested on: Protein-glutamine gamma-glutamyltransferase E (TGM3); test: TMT MS proteomics in HeLa cells, TGM3 abundance; assay type: cell-based, Homo sapiens; conditions: 1 µM, 10 h, two replicates
Description: as §1, §2, §3

Alsin (ALS2) = test: TMT MS proteomics in HeLa cells, ALS2 abundance; assay type: cell-based, Homo sapiens; conditions: 1 µM, 10 h, two replicates
Description: as §1, §2, §3

pVHL30 = pVHL30 (Homo sapiens, UniProt P40337); test: Immunoblot of pVHL30 protein level in HeLa cells after compound treatment; assay type: cell-based; set-up: endogenous in cells; host or cells: HeLa; conditions: for depletion of target protein (pVHL30 / VHL) / remaining activity at 1 µM: 10 h; for remaining activity at 1 µM: DMSO = 100, Fig. 4a, read-out: pVHL30 band quantification normalized to 0.1% DMSO
pVHL19 = pVHL19 (Homo sapiens, UniProt P40337); test: Immunoblot of pVHL19 protein level in HeLa cells after compound treatment; assay type: cell-based; set-up: endogenous in cells; host or cells: HeLa; conditions: 1 µM, 10 h, DMSO = 100, Fig. 4a, read-out: pVHL19 band quantification normalized to 0.1% DMSO
Sequence of pVHL19 (P40337 54-213): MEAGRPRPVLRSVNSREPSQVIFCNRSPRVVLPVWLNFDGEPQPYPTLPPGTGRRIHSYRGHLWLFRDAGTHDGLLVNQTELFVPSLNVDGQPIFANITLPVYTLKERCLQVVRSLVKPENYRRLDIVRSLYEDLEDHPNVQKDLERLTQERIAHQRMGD
Sequence of pVHL19 (Q15369 whole entry partner): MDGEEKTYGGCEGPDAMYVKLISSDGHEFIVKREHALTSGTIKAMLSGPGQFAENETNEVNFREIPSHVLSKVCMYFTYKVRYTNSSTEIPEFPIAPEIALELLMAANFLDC
Sequence of pVHL19 (Q15370 whole entry partner): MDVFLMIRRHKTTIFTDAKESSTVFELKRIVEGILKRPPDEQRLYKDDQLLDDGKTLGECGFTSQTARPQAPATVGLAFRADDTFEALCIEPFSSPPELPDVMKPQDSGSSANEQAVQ

Sequence of pVHL30 (P40337 whole entry): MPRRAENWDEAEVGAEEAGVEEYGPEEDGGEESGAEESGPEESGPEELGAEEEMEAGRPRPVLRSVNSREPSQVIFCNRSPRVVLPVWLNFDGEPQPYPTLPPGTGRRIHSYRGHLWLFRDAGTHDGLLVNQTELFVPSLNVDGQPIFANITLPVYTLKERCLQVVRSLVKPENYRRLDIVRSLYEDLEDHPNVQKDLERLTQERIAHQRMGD

SMILES	proteins depleted amongst 6,450 detected proteins (HeLa cells)	average normalized ratio to DMSO, LRRC42 [1]	average normalized ratio to DMSO, TGM3 [2]	average normalized ratio to DMSO, ALS2 (Alsin (ALS2))	increase in cellular activity compared to parent inhibitor VH032 (pVHL30)	depletion of target protein (pVHL30 / VHL) (pVHL30; 1 µM)	remaining activity at 1 µM (pVHL30; 1 µM)	pVHL30 levels detected (pVHL30; 1 µM, after 24–36 h treatment)	decrease of pVHL30 level (pVHL30; 1 µM, after 2 h)	decrease of pVHL30 level (pVHL30; 1 µM, after 8 h)	DC99 (complete depletion of pVHL30) (pVHL30; 4 h)	effective degrading concentrations lower than inhibitory concentrations of VH032 (pVHL30; compared to VH032)	remaining activity at 1 µM (pVHL19)	degradation of pVHL in time course (pVHL30; 1 µM, even in the longer time points)
Cc1ncsc1-c1ccc(CNC(=O)[C@@H]2C[C@@H](O)CN2C(=O)[C@@H](NC(=O)COCCOCCOCCOCCOCCOCC(=O)N[C@H](C(=O)N2C[C@H](O)C[C@H]2C(=O)NCc2ccc(-c3scnc3C)cc2)C(C)(C)C)C(C)(C)C)cc1 [CM11, N ^1 ,N ^20-bis((S)-1-((2S,4R)-4-hydroxy-2-((4-(4-methylthiazol-5-yl)benzyl)carbamoyl)pyrrolidin-1-yl)-3,3-dimethyl-1-oxobutan-2-yl)-3,6,9,12,15,18-hexaoxaicosanediamide]	no proteins other than Cul2 were substantially depleted	0.60	0.72	0.98	> 1000 fold	total knockdown	1%	up to 11%	> 70%	essentially to completion	10 nM	> 3 orders of magnitude	91%	–
Cc1ncsc1-c1ccc(CNC(=O)[C@@H]2C[C@@H](O)CN2C(=O)[C@@H](NC(=O)COCCOCCOCCOCCOCC(=O)N[C@H](C(=O)N2C[C@H](O)C[C@H]2C(=O)NCc2ccc(-c3scnc3C)cc2)C(C)(C)C)C(C)(C)C)cc1 [CM10, N ^1 ,N ^17-bis((S)-1-((2S,4R)-4-hydroxy-2-((4-(4-methylthiazol-5-yl)benzyl)carbamoyl)pyrrolidin-1-yl)-3,3-dimethyl-1-oxobutan-2-yl)-3,6,9,12,15-pentaoxaheptadecanediamide]	no proteins other than Cul2 were substantially depleted	0.64	0.99	1.00	–	total knockdown	3%	–	–	–	–	–	92%	–
Cc1ncsc1-c1ccc(CNC(=O)[C@@H]2C[C@@H](O)CN2C(=O)[C@@H](NC(=O)COCCOCCOCCOCC(=O)N[C@H](C(=O)N2C[C@H](O)C[C@H]2C(=O)NCc2ccc(-c3scnc3C)cc2)C(C)(C)C)C(C)(C)C)cc1 [CM09, N ^1 ,N ^14-bis((S)-1-((2S,4R)-4-hydroxy-2-((4-(4-methylthiazol-5-yl)benzyl)carbamoyl)pyrrolidin-1-yl)-3,3-dimethyl-1-oxobutan-2-yl)-3,6,9,12-tetraoxatetradecanediamide]	no proteins other than Cul2 were substantially depleted	2.15	1.74	0.98	–	–	19%	–	–	–	–	–	102%	Incomplete degradation
